# Experimental data: US20210024542A1 (Torcept Therapeutics, Inc., priority 2018, published 2021)
# Where two headings read alike, the source gives them in different places.
# Key:
# [1] = system: U2OS; assay: OncoPanel cell proliferation assay, U2OS; format: cell-based, human
# Description: (§1) Cells were seeded into 384-well plates and incubated in a humidified atmosphere of 5% CO2 at 37° C. Compounds were added the day following cell seeding. At the same time, a time zero untreated cell plate was generated. After a 3-day incubation period, cells were fixed and stained to allow fluorescence imaging of nuclei. Compounds (1 mM stock solutions) were serially diluted in half-log steps from the highest test concentration ([…]), and assayed over 10 concentrations with a maximum assay concentration of 0.1% DMSO. Automated fluorescence microscopy was carried out using a Molecular Devices ImageXpress Micro XL high-content imager, and images were collected with a 4× objective. 16-bit TIFF images were acquired and analyzed with MetaXpress 5.1.0.41 software.
# (§2) Cell proliferation was measured by the fluorescence intensity of an incorporated nuclear dye. The output is referred to as the relative cell count, where the measured nuclear intensity is transformed to percent of control (POC) using the following formula: […]
# (§3) Cellular response parameters were calculated using nonlinear regression to a sigmoidal single-site dose response model:
# (§4) Where y is a response measured at concentration x, A and B are the lower and upper limits of the response, C is the concentration at the response midpoint (EC50), and D is the Hill Slope (Ref. 1).
# (§5) GI50 is the concentration needed to reduce the observed growth by half (midway between the curve maximum and the time zero value). […] In rare instances, values <0 or >10 may be observed. […] Curve-fitting, calculations, and report generation was performed using a custom data reduction engine and MathIQ based software (AIM).
# [2] = Day 30, 10 mg/kg IP QD
# Description: (§6) Tumor growth was monitored daily. […] Significance was set at p≤0.05.
# [3] = mouse, in vivo, ip, 10 mg/kg
# Description: as §6
# [4] = system: DMS114; assay: OncoPanel cell proliferation assay, DMS114; format: cell-based, human; details: for Relative cell count (%) Mean: DMS114
# Description: as §1, §2, §3, §4, §5
# [5] = system: U-138MG; assay: OncoPanel cell proliferation assay, U-138MG; format: cell-based, human
# Description: as §1, with “Cells were grown in RPMI 1640, 10% FBS, 2 mM L-alanyl-L-glutamine, 1 mM Na pyruvate, or a special medium. Cells” for “Cells”
# as §2, §3, §4
# EC50 is the test compound concentration at the curve inflection point or half the effective response (parameter C of the fitted curve solution). GI50 is the concentration needed to reduce the observed growth by half (midway between the curve maximum and the time zero value). “Cell Count Activity Area” is an estimate of the integrated area above the curve (Barretina, et al. The Cancer Cell Line Encyclopedia enables predictive modelling of anticancer drug sensitivity. Nature 483: 603-607). […] In rare instances, values <0 or >10 may be observed. […] Curve-fitting, calculations, and report generation was performed using a custom data reduction engine and MathIQ based software (AIM).
smiles,measurement,setting,value
"CO[C@H]1C[C@@H]2CC[C@@H](C)[C@@](O)(O2)C(=O)C(=O)N2CCCC[C@H]2C(=O)O[C@H]([C@H](C)C[C@@H]2C[C@@H]3C[C@H]2C[C@H]3O)CC(=O)[C@H](C)/C=C(\C)[C@@H](O)[C@@H](OC)C(=O)[C@H](C)C[C@H](C)/C=C/C=C/C=C/1C [Formula I, 37R-hydroxynorbornylrapamycin]",Relative cell count (%) Mean,[1]; 1.00E+00 microM,50.8%
same,Relative cell count (%) Mean,[1]; 1.00E−01 microM,48.5%
same,Relative cell count (%) Mean,[1]; 1.00E−02 microM,51.4%
same,Relative cell count (%) Mean,[1]; 1.00E−03 microM,69.9%
same,Relative cell count (%) Mean,[1]; 1.01E−04 microM,86.1%
same,Relative cell count (%) Mean,[1]; 3.16E−01 microM,43.2%
same,Relative cell count (%) Mean,[1]; 3.17E−02 microM,47.8%
same,Relative cell count (%) Mean,[1]; 3.17E−03 microM,62.6%
same,Relative cell count (%) Mean,[1]; 3.18E−04 microM,75.4%
same,Relative cell count (%) Mean,[1]; 3.18E−05 microM,95.3%
same,EC50,"[1]; Homo sapiens, 72 h, 3-day incubation, read-out: Cell Count EC50",0.395 nM
same,GI50,"[1]; Homo sapiens, 72 h, 3-day incubation, read-out: Cell Count GI50",2.76 nM
same,IC50,"[1]; Homo sapiens, 72 h, 3-day incubation, read-out: Cell Count IC50",12.1 nM
same,Cell Count Activity Area,[1]; scale 0-10,4.05
same,Percent Survival,[2],100%
same,"Body Wt. % Δ from Baseline, Mean",[3],14.24%
same,"Body Wt. % Δ from Baseline, Median",[3],14.91%
same,Cell Count Activity Area,"[4]; DMS114, scale 0-10",4.35
same,Relative cell count (%) Mean,[4]; 1.00E+00 microM,39.3%
same,Relative cell count (%) Mean,[4]; 1.00E−01 microM,44.1%
same,Relative cell count (%) Mean,[4]; 1.00E−02 microM,50.7%
same,Relative cell count (%) Mean,[4]; 1.00E−03 microM,57.7%
same,Relative cell count (%) Mean,[4]; 1.01E−04 microM,77.8%
same,Relative cell count (%) Mean,[4]; 3.16E−01 microM,41.4%
same,Relative cell count (%) Mean,[4]; 3.17E−02 microM,44.7%
same,Relative cell count (%) Mean,[4]; 3.17E−03 microM,51.7%
same,Relative cell count (%) Mean,[4]; 3.18E−04 microM,67.2%
same,Relative cell count (%) Mean,[4]; 3.18E−05 microM,90.1%
same,EC50,"[4]; Homo sapiens, DMS-114, 72 h, DMS114, 3-day incubation, read-out: Cell Count EC50",0.251 nM
same,GI50,"[4]; Homo sapiens, DMS-114, 72 h, DMS114, 3-day incubation, read-out: Cell Count GI50",0.0822 nM
same,IC50,"[4]; Homo sapiens, DMS-114, 72 h, DMS114, 3-day incubation, read-out: Cell Count IC50",4.4 nM
same,EC50,"[5]; Homo sapiens, U138-MG, 72 h, U-138MG, 3-day incubation, read-out: Cell Count EC50",0.0975 nM
same,GI50,"[5]; Homo sapiens, U138-MG, 72 h, U-138MG, 3-day incubation, read-out: Cell Count GI50",0.54 nM
same,IC50,"[5]; Homo sapiens, U138-MG, 72 h, U-138MG, 3-day incubation, read-out: Cell Count IC50",> 1000 nM
same,EC50,"[5]; Homo sapiens, U138-MG, Table 4 summary, U-138 MG, Glioblastoma, read-out: EC50",0.097 nM
same,Cell Count Activity Area,"[5]; U-138MG, scale 0-10",3.00
same,Relative cell count (%) Mean,"[5]; U-138MG, 1.00E+00 microM",62.8%
same,Relative cell count (%) Mean,"[5]; U-138MG, 1.00E−01 microM",66.3%
same,Relative cell count (%) Mean,"[5]; U-138MG, 1.00E−02 microM",71.3%
same,Relative cell count (%) Mean,"[5]; U-138MG, 1.00E−03 microM",70.6%
same,Relative cell count (%) Mean,"[5]; U-138MG, 1.01E−04 microM",82.1%
same,Relative cell count (%) Mean,"[5]; U-138MG, 3.16E−01 microM",64.5%
same,Relative cell count (%) Mean,"[5]; U-138MG, 3.17E−02 microM",66.8%
same,Relative cell count (%) Mean,"[5]; U-138MG, 3.17E−03 microM",70.9%
same,Relative cell count (%) Mean,"[5]; U-138MG, 3.18E−04 microM",75.7%
same,Relative cell count (%) Mean,"[5]; U-138MG, 3.18E−05 microM",98.2%
